Reference: patent publication US4656258A, “Macrocin derivatives” (Eli Lilly and Company, priority 1985, dated 1987)
In brackets after ≈: the same amount, converted by molar mass.

Assays:
[1] = tested on: Mycoplasma hyopneumonia S-5972; assay: broth-dilution microtiter MIC; type: cell-based; details: S5972
Procedure: (§1) The MIC's in Table I were determined by standard agar-dilution assays. The MIC's in Table II were obtained using a conventional broth-dilution microtiter test.

[2] = tested on: Pasteurella multocida 60A; assay: broth-dilution microtiter MIC; type: cell-based; details: avian isolate
Procedure: as §1

[3] = tested on: Staphylococcus aureus; assay: broth-dilution microtiter MIC; type: cell-based
Procedure: as §1

[4] = tested on: Pasteurella multocida 17E; assay: broth-dilution microtiter MIC; type: cell-based; details: bovine isolate
Procedure: as §1

[5] = tested on: Streptococcus sp. 80; assay: broth-dilution microtiter MIC; type: cell-based
Procedure: as §1

[6] = tested on: Klebsiella pneumoniae X26; assay: agar-dilution MIC; type: cell-based
Procedure: as §1

[7] = tested on: Staphylococcus epidermidis EPI2; assay: agar-dilution MIC; type: cell-based
Procedure: as §1

[8] = tested on: Haemophilus influenzae 76; assay: agar-dilution MIC; type: cell-based; details: Haemophilus influenzae 76, ampicillin-resistant strain
Procedure: as §1

[9] = tested on: Streptococcus pneumoniae Park I; assay: agar-dilution MIC; type: cell-based
Procedure: as §1

[10] = tested on: Staphylococcus epidermidis EPI1; assay: agar-dilution MIC; type: cell-based
Procedure: as §1

[11] = tested on: Haemophilus influenzae C.L.; assay: agar-dilution MIC; type: cell-based; details: ampicillin-sensitive strain
Procedure: as §1

[12] = tested on: Streptococcus pneumoniae Group D X66; assay: agar-dilution MIC; type: cell-based
Procedure: as §1

[13] = tested on: Staphylococcus aureus X400; assay: agar-dilution MIC; type: cell-based; details: Staphylococcus aureus X400, methicillin-resistant strain
Procedure: as §1

[14] = tested on: Streptococcus pneumoniae Group D 9960; assay: agar-dilution MIC; type: cell-based; details: GROUPD9960
Procedure: as §1

[15] = tested on: Staphylococcus aureus S13E; assay: agar-dilution MIC; type: cell-based
Procedure: as §1

[16] = tested on: Eschericia coli TEM; assay: agar-dilution MIC; type: cell-based
Procedure: as §1

[17] = tested on: Staphylococcus aureus V41; assay: agar-dilution MIC; type: cell-based; details: Staphylococcus aureus V41, penicillin-resistant strain
Procedure: as §1

[18] = tested on: Staphylococcus aureus X1.1; assay: agar-dilution MIC; type: cell-based
Procedure: as §1

[19] = tested on: Streptococcus pyogenes C203; assay: agar-dilution MIC; type: cell-based
Procedure: as §1

[20] = tested on: Mycoplasma gallisepticum; assay: antimycoplasmal activity in experimentally infected chicks; type: in vivo; details: gavage, 0.5 g/gal × 5, 21 days after infection; for Number with Antibodies / Number Tested: antibodies to M. gallisepticum; for Number with Antibodies / Number Tested / Number with Air-Sac Lesions / Number Treated: infected control 10/10, uninfected control 0/10; for Mortality: infected control 2/7
Procedure: In these tests infections were induced in chicks by injecting 0.2 ml of a broth culture of M. gallisepticum into the abdominal air sac of one- to three-day-old chicks. The compounds were administered by gavage at a dose equivalent to 0.5 g/gal two times on the day of infection, two times on the day following infection and one time on the third day. Twenty-one days after infection the chicks were weighed, a blood sample was taken, and the chicks were sacrificed. The presence or absence of air-sac lesions was recorded.

[21] = macrocin vs tylosin, lactenocin vs desmycosin; cited from earlier work

Row | SMILES | MIC [1] [µg/mL] | MIC [2] [µg/mL] | MIC [3] [µg/mL] | MIC [4] [µg/mL] | MIC [5] [µg/mL] | MIC [6] [µg/mL] | MIC [7] [µg/mL] | MIC [8] [µg/mL] | MIC [9] [µg/mL] | MIC [10] [µg/mL] | MIC [11] [µg/mL] | MIC [12] [µg/mL] | MIC [13] [µg/mL] | MIC [14] [µg/mL] | MIC [15] [µg/mL] | MIC [16] [µg/mL] | MIC [17] [µg/mL] | MIC [18] [µg/mL] | MIC [19] [µg/mL] | Number with Antibodies / Number Tested [20] | other results
1 | CCC1OC(=O)CC(OC(C)=O)C(C)C(OC2OC(C)C(OC3CC(C)(O)C(OC(=O)CC(C)C)C(C)O3)C(N(C)C)C2O)C(CC=O)CC(C)C(=O)C=CC(C)=CC1COC1OC(C)C(O)C(O)C1OC (stereo not shown) [3-Acetyl-4"-Isovaleryl-macrocin, 3-O-acetyl-4"-O-isovalerylmacrocin] | 0.048 (≈ 0.0467 µM) | > 50 | 1.56 (≈ 1.52 µM) | 50 (≈ 48.6 µM) | 0.39 (≈ 0.379 µM) | 64 (≈ 62.2 µM) | 2 (≈ 1.95 µM) | 16 (≈ 15.6 µM) | 0.5 (≈ 0.486 µM) | 0.5 (≈ 0.486 µM) | 32 (≈ 31.1 µM) | 2 (≈ 1.95 µM) | 2 (≈ 1.95 µM) | 2 (≈ 1.95 µM) | 1 (≈ 0.973 µM) | 128 (≈ 124 µM) | 1 (≈ 0.973 µM) | 0.5 (≈ 0.486 µM) | 0.25 (≈ 0.243 µM) | 10/10 | Mortality [20]: 0/10; Number with Air-Sac Lesions / Number Treated [20]: 1/10
2 | CCC1OC(=O)CC(OC(C)=O)C(C)C(OC2OC(C)C(OC3CC(C)(O)C(O)C(C)O3)C(N(C)C)C2O)C(CC=O)CC(C)C(=O)C=CC(C)=CC1COC1OC(C)C(O)C(O)C1OC (stereo not shown) [3-Acetyl-macrocin, 3-O-Acetylmacrocin] | – | > 50 | 1.56 (≈ 1.65 µM) | 50 (≈ 53 µM) | 1.56 (≈ 1.65 µM) | 64 (≈ 67.8 µM) | 2 (≈ 2.12 µM) | 16 (≈ 16.9 µM) | 0.5 (≈ 0.53 µM) | 0.5 (≈ 0.53 µM) | 32 (≈ 33.9 µM) | 2 (≈ 2.12 µM) | 2 (≈ 2.12 µM) | 2 (≈ 2.12 µM) | 1 (≈ 1.06 µM) | 64 (≈ 67.8 µM) | 1 (≈ 1.06 µM) | 0.5 (≈ 0.53 µM) | 0.25 (≈ 0.265 µM) | – | –
3 | CCC1OC(=O)CC(OC(C)=O)C(C)C(OC2OC(C)C(O)C(N(C)C)C2O)C(CC=O)CC(C)C(=O)C=CC(C)=CC1COC1OC(C)C(O)C(O)C1OC (stereo not shown) [3-Acetyl-lactenocin, 3-O-Acetyllactenocin] | – | 25 (≈ 31.3 µM) | 3.12 (≈ 3.9 µM) | 12.5 (≈ 15.6 µM) | 1.56 (≈ 1.95 µM) | 32 (≈ 40 µM) | 4 (≈ 5 µM) | 8 (≈ 10 µM) | 0.5 (≈ 0.625 µM) | 1 (≈ 1.25 µM) | 16 (≈ 20 µM) | 8 (≈ 10 µM) | 4 (≈ 5 µM) | 8 (≈ 10 µM) | 2 (≈ 2.5 µM) | 64 (≈ 80 µM) | 2 (≈ 2.5 µM) | 1 (≈ 1.25 µM) | 0.25 (≈ 0.313 µM) | – | –
4 | CCCC(=O)OC1C(C)OC(OC2C(C)OC(OC3C(CC=O)CC(C)C(=O)C=CC(C)=CC(COC4OC(C)C(O)C(O)C4OC)C(CC)OC(=O)CC(OC(C)=O)C3C)C(O)C2N(C)C)CC1(C)O (stereo not shown) [3-Acetyl-4"-(n-Butyryl)-macrocin, 3-O-Acetyl-4"-O-(n-Butyryl)macrocin] | 0.048 (≈ 0.0473 µM) | 50 (≈ 49.3 µM) | 3.12 (≈ 3.08 µM) | 50 (≈ 49.3 µM) | 0.39 (≈ 0.385 µM) | 64 (≈ 63.1 µM) | 2 (≈ 1.97 µM) | 32 (≈ 31.6 µM) | 0.25 (≈ 0.246 µM) | 1 (≈ 0.986 µM) | 32 (≈ 31.6 µM) | 2 (≈ 1.97 µM) | 2 (≈ 1.97 µM) | 2 (≈ 1.97 µM) | 2 (≈ 1.97 µM) | > 128 | 1 (≈ 0.986 µM) | 1 (≈ 0.986 µM) | 0.5 (≈ 0.493 µM) | 7/9 | Mortality [20]: 1/7; Number with Air-Sac Lesions / Number Treated [20]: 7/10
5 | CCC1OC(=O)CC(O)C(C)C(OC2OC(C)C(OC3CC(C)(O)C(O)C(C)O3)C(N(C)C)C2O)C(CC=O)CC(C)C(=O)C=CC(C)=CC1COC1OC(C)C(O)C(O)C1OC (stereo not shown) [macrocin] | – | – | – | – | – | – | – | – | – | – | – | – | – | – | – | – | – | – | – | – | antibiotic activity relative to tylosin / desmycosin [21]: less than that of tylosin
6 | CCC1OC(=O)CC(O)C(C)C(OC2OC(C)C(O)C(N(C)C)C2O)C(CC=O)CC(C)C(=O)C=CC(C)=CC1COC1OC(C)C(O)C(O)C1OC (stereo not shown) [lactenocin] | – | – | – | – | – | – | – | – | – | – | – | – | – | – | – | – | – | – | – | – | antibiotic activity relative to tylosin / desmycosin [21]: less than that of tylosin and desmycosin, respectively
